This note sets out measurements from patent US11059784B2, “Oxime ether compounds” (BRISTOL-MYERS SQUIBB COMPANY, priority 2017, dated 2021).

Data set [1] deals with blood lymphocytes. The data set can be described thus: Blood Lymphocyte Reduction (BLR) assay in rodent. In kind it is in vivo, Lewis rats. To be noted: 24 hr post-dose, Table B study; for Percent reduction vs. control: hydrochloride. How it is done:
Blood Lymphocyte Reduction (BLR) assay in rodent:
Lewis rats were dosed orally with vehicle alone (polyethylene glycol 300, “PEG300”) or with the comparative compound 2-amino-2-[2-(4-octylphenyl)ethyl]-1,3-propanediol, hydrochloride (“FTY” CAS: […]) as a solution in the vehicle at doses of 0.1 mg/kg, 0.5 mg/kg and 3.0 mg/kg. The results are provided in Table Band the level of lymphocyte reduction at 24 hours post-dose was maximal at 3.0 mg/kg. The percent reduction in lymphocytes is dose-related but the relationship is not linear, with non-proportional increases in dose being required to elicit sequentially greater reductions in lymphocyte counts.

Data set [2] is described as follows: Pulmonary Toxicity Assay (bronchoalveolar lavage protein). It is filed as in vivo, rats. To be noted: 3 mg/kg oral, 24 hr post-dose. As to the method: The analysis of protein levels in bronchoalveolar lavage (BAL) fluid obtained from an animal were used to gauge pulmonary side effects. Increased levels of protein in BAL fluid were indicative of undesired edematous pulmonary effects, such as pulmonary edema.
Example 3 was administered orally to rats at doses of 0.3, 1.0, 10, 30 mg/kg and 2-amino-2-[2-(4-octylphenyl)ethyl]-1,3-propanediol, hydrochloride (CAS: 162359-56-0) was administered at 3.0 mg/kg as a solution in the vehicle. At 24 hours post dose, the rats were then euthanized by barbiturate overdose. The trachea was exposed by incision of the overlying skin and then cannulated. The lungs were lavaged with 4 mL of saline. The recovered lavage fluid was assayed for total protein content. The concentration of the BAL protein in the recovered BAL fluid was determined on an Advia 1800 Chemistry Analyzer (Siemens Healthcare Diagnostics). The results represent the average results of all animals within each treatment group (n=2-4).

Data set [3] concerns blood lymphocytes. The data set is described as follows: Blood Lymphocyte Reduction (BLR) assay in rodent. In kind it is in vivo, Lewis rats. The following applies: 3 mg/kg, 24 hr post-dose, Table C study.

On to `CCCCCCCCc1ccc(CCC(N)(CO)CO)cc1.Cl` [FTY, 2-amino-2-[2-(4-octylphenyl)ethyl]-1,3-propanediol, hydrochloride], for which the “Rat Blood Lymphocyte Reduction Assay, Compound Mean” value was found to be 2.78 in data set [1] (0.1 mg/kg oral), 1.64 in data set [1] (0.5 mg/kg oral) and 1.02 in data set [1] (3.0 mg/kg oral). Besides, the “Percent reduction vs. control” value was found to be 69% in data set [1] (0.1 mg/kg oral); 69% in data set [1] (0.1 mg/kg oral, listed as 2-amino-2-[2-(4-octylphenl)pethyl]-1,3-propanediol); 82% in data set [1] (0.5 mg/kg oral); 82% in data set [1] (0.5 mg/kg oral, listed as 2-amino-2-[2-(4-octylphenl)pethyl]-1,3-propanediol); 89% in data set [1] (3.0 mg/kg oral); 89% in data set [1] (3.0 mg/kg oral, listed as 2-amino-2-[2-(4-octylphenl)pethyl]-1,3-propanediol). Further, the “Relative BAL protein vs. control” value in data set [2] is listed as 1.8. Also, the “Percent reduction vs. vehicle control” value in data set [3] stood at 87%.
